Tests used:
[1] = target: T1, BRD4 (BD1) (Homo sapiens, UniProt O60885); conditions: advanced BRD4 (BD1) drug; cited from earlier work
T1 construct: A pET28 plasmid containing residues 44–168 of BRD4 (BD1), a 6xHis tag, a TEV protease cleavage site; 6xHis (N, cleaved yes); made in house; host or cells: E. coli Rosetta (D3)

[2] = target: T2, His6-BRD4 (BD1) (Homo sapiens, UniProt O60885); assay: Surface plasmon resonance (SPR) single-dose screening; assay type: binding; set-up: key to SPR RESULT: Positive: compounds were considered as SPR hits also when their average signal was further than two standard deviations apart from the average signal of the blank samples (1% DMSO); conditions: for RUs at [10 µM]: SPR, compound 10 µM, 1% DMSO, n = 2, decimal comma; for SPR RESULT: single dose 10 µM, n = 2
T2 construct: A pET28 plasmid containing residues 44–168 of BRD4 (BD1), a 6xHis tag, a TEV protease cleavage site; made in house; host or cells: E. coli Rosetta (D3)

[3] = target: T1, BRD4 (BD1); assay: Competitive HTRF TR-FRET binding assay (displacement of acetylated histone H4 peptide); conditions: 16-point titration 0.1 nM to 10 µM, n = 2, Negative = curve could not be fitted to a sigmoidal curve
Protocol: To further quantitatively characterize the DSF/SPR hits compounds obtained in the single-dose screenings, we selected HTRF TR-FRET. Specifically, we employed a competitive HTRF TR-FRET experiment to measure the compound’s capacity to displace an acetylated peptide from the binding site of BRD4 (BD1). For each molecule, a 16-point concentration curve was titrated against the peptide-BRD (BD1) complex and incubated for 1.5 h. A compound was considered a positive binder if we could fit its titration curve to a sigmoidal curve to determine its IC50. […] Compound screening was carried out in 384-well, white, round-bottom, small-volume plates (CORNING) in a final volume of 20 µL of 50 mM HEPES (pH 7.4), 50 mM NaCl, 400 mM KF, 0.5 mM CHAPS, and 0.05% BSA. […] Then, the labeled anti-His6-XL665 antibody (CisBio) (10 nM) was added to the mixture and incubated for 15 min, before the Eu3+ cryptate-conjugated streptavidin (2 nM) (CisBio) was added and incubated for 15 min. All incubations were performed at room temperature. […] Titration of (+)−JQ1 was used as a positive control for each experiment.

[4] = target: T1, BRD4 (BD1); assay: Differential scanning fluorimetry (DSF) single-dose thermal shift screening; assay type: binding; conditions: DSF, compound 10 µM, BRD4 (BD1) 2 µM, n = 3, decimal comma; read-out: ΔTm ºC at [10 µM]

Compound	Ki [1]	RUs at [10 µM] [2]	TR-FRET IC50 (nM) [3]	ΔTm at 10 µM [4]	SPR RESULT [2]	IC50 ([3]; read-out: TR-FRET IC50)
CCS(=O)(=O)Nc1ccc(Oc2ccc(F)cc2F)c(-c2cn(C)c(=O)c3[nH]ccc23)c1 [Compound 1, CCS(=O)(=O)NC1=CC(=C(C=C1)OC2=C(C=C(C=C2)F)F)C3=CN(C(=O)C4=C3C=CN4)C, reference compound]	11 nM	116,86 ± 26,64 RUs				
CCn1nnc2cc(C(=O)N3C[C@@H](OC(C)=O)[C@@H](n4cc(CN5CCC(O)CC5)nn4)C3)ccc21 [Compound 95, CCN1N=NC=2C=C(C=CC12)C(=O)N3C[C@@H](OC(=O)C)[C@H](C3)N4C=C(CN5CCC(O)CC5)N=N4]		14,42 ± 2,9 RUs	Negative	0.19 °C	Positive	
CCCc1c(C(=O)N(C)C2CN(C(=O)c3cc(C)n[nH]3)C2)[nH]c(C)c1C(C)=O [Compound 96, CCCC1=C(NC(C)=C1C(=O)C)C(=O)N(C)C2CN(C2)C(=O)C3=CC(C)=NN3]		16,1 ± 0,61 RUs		2.24 °C	Positive	211 nM
